Read-outs that look alike come from different tables or passages of the source.
Key:
human glioma (GLO7) = assay: Antitumor effect of the compounds against human glioma (GLO7), nude mice xenograft; type: in vivo; conditions: Mus musculus, po, 216 h, read-out: Tumor growth inhibition rate (TGIR)
Description: Analogously to 2, human glioma cells, GLO7 (obtained from the Central Institute for Experimental Animals), was transplanted into nude mice. When the tumor had grown to a volume of about 100 mm^3, the nude mice were divided into several groups of 4 animals so as to equalize the average tumor volumes of each group. The test drug was administered orally to animals in experimental groups once a day for 9 consecutive days at 50 mg/kg, and the vehicle was administered to control animals. The tumor growth inhibition rate (TGIR, %) was calculated from the equation: TGIR=(1-Tx/Cx)×100, in which Cx is the tumor volume in the control mice and Tx is the tumor volume in the drug-treated mice, on day X, when the initial tumor volume at the time treatment was commenced is set 1.

PDGF receptor = target: T1, PDGF receptor (Rattus norvegicus, UniProt Q05030); assay: PDGF receptor autophosphorylation inhibition in cultured rat mesangial cells; type: cell-based; conditions: PDGF-BB 50 ng/ml
T1 construct: cultured rat mesangial cells which are known to have the PDGF receptor; endogenous in cells; host or cells: primary mesangial cells cultured from glomeruli of Wistar-Kyoto rats (Charles River Japan), more than 5 passages
T1 sequence (Q05030 32-1097): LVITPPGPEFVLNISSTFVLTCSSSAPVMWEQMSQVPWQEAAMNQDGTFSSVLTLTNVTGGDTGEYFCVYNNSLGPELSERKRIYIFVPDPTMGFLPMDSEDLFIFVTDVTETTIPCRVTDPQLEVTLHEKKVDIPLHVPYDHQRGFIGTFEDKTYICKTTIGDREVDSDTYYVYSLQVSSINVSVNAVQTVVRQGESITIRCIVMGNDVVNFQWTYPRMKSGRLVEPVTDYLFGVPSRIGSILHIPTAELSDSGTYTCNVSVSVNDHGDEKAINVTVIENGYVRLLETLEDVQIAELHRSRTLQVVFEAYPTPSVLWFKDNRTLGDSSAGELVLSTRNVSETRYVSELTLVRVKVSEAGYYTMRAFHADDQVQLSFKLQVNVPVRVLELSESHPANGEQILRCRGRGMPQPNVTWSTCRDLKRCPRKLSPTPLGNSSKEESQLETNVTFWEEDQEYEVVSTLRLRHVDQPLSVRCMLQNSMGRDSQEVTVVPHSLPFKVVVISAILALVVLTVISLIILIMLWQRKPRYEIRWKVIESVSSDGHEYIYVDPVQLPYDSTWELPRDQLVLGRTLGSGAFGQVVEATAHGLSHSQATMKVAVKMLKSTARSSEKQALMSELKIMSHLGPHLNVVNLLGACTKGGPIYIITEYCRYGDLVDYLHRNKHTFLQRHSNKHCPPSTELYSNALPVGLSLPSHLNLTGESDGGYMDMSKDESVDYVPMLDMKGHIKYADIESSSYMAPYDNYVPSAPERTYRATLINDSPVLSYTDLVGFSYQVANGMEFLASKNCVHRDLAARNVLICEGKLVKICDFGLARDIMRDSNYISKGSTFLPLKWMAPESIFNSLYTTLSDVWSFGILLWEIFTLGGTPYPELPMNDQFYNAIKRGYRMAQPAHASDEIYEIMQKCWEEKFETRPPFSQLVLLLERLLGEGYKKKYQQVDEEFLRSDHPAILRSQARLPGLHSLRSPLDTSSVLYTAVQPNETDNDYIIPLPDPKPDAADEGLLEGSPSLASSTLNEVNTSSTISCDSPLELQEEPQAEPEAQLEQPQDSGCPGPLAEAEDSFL
Description: 1. Cultivation of rat mesangial cells
The glomerulus-derived adhesive cells were subcultured several times to obtain mesangial cells. The mesangial cells subcultured more than 5 passages were used for the assay.
2.Evaluation of PDGF receptor autophosphorylation inhibition
The mesangial cells were seeded in 24-well flat-bottom microtiter plates and then cultured in the medium containing 10% FCS for 2 days. When the cells were grown to about 3×10^4 cells per well, the medium was changed to the medium containing 0.5% FCS, the cultivation was continued for another 3 days, and then cell growth was arrested. The culture medium was removed, the adhered cells were washed with 500 μl of the medium, and 250 μl of the medium containing 0.1% bovine serum albumin (hereinafter abbreviated to BSA) was then added. A test drug dissolved in 1.38 μl of dimethyl sulfoxide (hereinafter abbreviated to DMSO) was added to this culture medium, and the admixture was incubated at 37° C. for 1 hour. Recombinant human platelet-derived growth factor BB chain (hereinafter abbreviated to PDGF-BB) was dissolved in the medium containing 0.1% BSA, 25 μl per well of the solution was added at final 50 ng/ml, and the incubation was continued at 37° C. for 10 minutes. […] The cells were allowed to stand at 4° C. for 30 minutes for lysis, and the resulting solution was thoroughly admixed with an equal amount of Tris-buffered physiological saline containing 1% sodium dodecyl sulfate (hereinafter abbreviated to SDS). […] After the electrophoresis, proteins in the gel were electrically transferred to a PVDF filter, which was then subjected to Western blotting using monoclonal antibodies against phosphotyrosine. Bands of PDGF receptor (molecular weight: about 180 Kda) which were autophosphorylated due to the addition of PDGF-BB were quantitated by a densitometer. Autophosphorylation rates for individual wells with drugs were calculated by setting measurements for PDGF receptor autophosphorylation in the wells without drugs in the presence and absence of PDGF-BB as 100% and 0%, respectively.

[1] = nude mice, 50 mg/kg orally once a day, 9 days

SMILES	inhibition in vivo at 50 mg/kg (human glioma (GLO7)) [%]	IC50 (PDGF receptor) [nM]	inhibition in vivo at 50 mg/kg (human glioma (GLO7); [1]) [%]
COc1cc2nccc(Oc3ccc(NC(=O)Nc4cc(Cl)ccc4Cl)cc3)c2cc1OC [Compound 235]	78		
COc1cc2nccc(Oc3ccc(NC(=O)Nc4ccccc4[N+](=O)[O-])cc3)c2cc1OC [Compound 168, N-{4-[(6,7-Dimethoxy-4-quinolyl)oxy]phenyl}-N'-(2-nitrophenyl)urea]		6	56
COc1cc2nccc(Oc3ccc(NC(=O)Nc4ccc(C(F)(F)F)cc4)cc3)c2cc1OC [Compound 52, N-(4-Trifluoromethylphenyl)-N'-{4-[(6,7-dimethoxy-4-quinolinyl)oxy]phenyl}urea]		30	86
COc1cc2nccc(Oc3ccc(NC(=O)Nc4cccc(Cl)c4OC)cc3)c2cc1OC [Compound 225, N-(3-Chloro-2-methoxyphenyl)-N'-{4-[(6,7-dimethoxy-4-quinolyl)oxy]phenyl}urea]		47	58
COc1cc2nccc(Oc3ccc(NC(=O)Nc4ccc(Cl)cc4C)cc3)c2cc1OC [Compound 242, N-(4-Chloro-2-methylphenyl)-N'-{4-[(6,7-dimethoxy-4-quinolyl)oxy]phenyl}urea]		18	62
COc1cc2nccc(Oc3ccc(NC(=O)Nc4ccc(F)cc4F)cc3)c2cc1OC [Compound 272, N-(2,4-Difluorophenyl)-N'-{4-[(6,7-dimethoxy-4-quinolyl)oxy]phenyl}urea]		3	84
COc1cc2nccc(Oc3ccc(NC(=O)Nc4ccc(Br)cc4)cc3)c2cc1OC [Compound 45, N-(4-Bromophenyl)-N'-{4-[(6,7-dimethoxy-4-quinolinyl)oxy]phenyl}urea]		14	68
COc1cc2nccc(Oc3ccc(NC(=O)Nc4c(F)ccc(F)c4F)cc3)c2cc1OC [Compound 262, N-(2,3,6-Trifluorophenyl)-N'-{4-[(6,7-dimethoxy-4-quinolyl)oxy]phenyl}urea]		2	87
COc1cc2nccc(Oc3ccc(NC(=O)Nc4ccc(F)cc4)cc3)c2cc1OC [Compound 44, N-(4-Fluorophenyl)-N'-{4-[(6,7-dimethoxy-4-quinolinyl)oxy]phenyl}urea]		6	78
COc1cc2nccc(Oc3ccc(NC(=O)Nc4ccccc4C)cc3)c2cc1OC [Compound 56, N-{4-[(6,7-Dimethoxy-4-quinolyl)oxy]phenyl}-N'-(2-methylphenyl)urea]		4	52
COc1cc2nccc(Oc3ccc(NC(=O)Nc4cc(F)c(F)cc4F)cc3)c2cc1OC [Compound 255, N-(2,4,5-Trifluorophenyl)-N'-{4-[(6,7-dimethoxy-4-quinolyl)oxy]phenyl}urea]		15	86
CCCNC(=O)Nc1ccc(Oc2ccnc3cc(OC)c(OC)cc23)cc1 [Compound 194, N-{4-[(6,7-Dimethoxy-4-quinolyl)oxy]phenyl}-N'-propylurea]		14	59
CCOC(=O)NC(=O)Nc1ccc(Oc2ccnc3cc(OC)c(OC)cc23)cc1 [Compound 190, N-Ethoxycarbonyl-N'-{4-[(6,7-Dimethoxy-4-quinolyl)oxy]phenyl}urea]		21	50
COc1cc2nccc(Oc3ccc(NC(=O)Nc4ccc(Cl)c(Cl)c4)cc3)c2cc1OC [Compound 236, N-(3,4-Dichlorophenyl)-N'-[4-[(6,7-dimethoxy-4-quinolyl)oxy]phenyl}urea]	84		
COc1cc2nccc(Oc3ccc(NC(=O)Nc4ccccc4N(C)C)cc3)c2cc1OC [Compound 191]			50
COc1cc2nccc(Oc3ccc(NC(=O)Nc4cccc(F)c4F)cc3)c2cc1OC [Compound 260, N-(2,3-Difluorophenyl)-N'-{4-[(6,7-dimethoxy-4-quinolyl)oxy]phenyl}urea]		2	52
COc1cc2nccc(Oc3ccc(NC(=O)Nc4ccc(F)c(F)c4)cc3)c2cc1OC [Compound 254, N-(3,4-Difluorophenyl)-N'-(4-[(6,7-dimethoxy-4-quinolyl)oxy]phenyl)urea]		7	85
COc1cc2nccc(Oc3ccc(NC(=O)Nc4cc(C(F)(F)F)ccc4C(F)(F)F)cc3)c2cc1OC [Compound 264, N-(2,5-Bis(trifluoromethyl)phenyl]-N'-{4-[(6,7-dimethoxy-4-quinolyl)oxy]phenyl}urea]			63
COc1cc2nccc(Oc3ccc(NC(=O)Nc4ccc(Cl)c(N)c4)cc3)c2cc1OC [Compound 244, N-(3-Amino-4-chlorophenyl)-N'-{4-[(6,7-dimethoxy-4-quinolyl)oxy]phenyl}urea]		9	73

SMILES	inhibition in vivo at 50 mg/kg (human glioma (GLO7)) [%]	IC50 (PDGF receptor) [nM]	inhibition in vivo at 50 mg/kg (human glioma (GLO7); [1]) [%]
COc1cc2nccc(Oc3ccc(NC(=O)Nc4cccc(F)c4)cc3)c2cc1OC [Compound 59]		4	82
COc1cc2nccc(Oc3ccc(NC(=O)Nc4cc(Cl)cc(Cl)c4)cc3)c2cc1OC [Compound 237, N-(3,5-Dichlorophenyl)-N'-{4-[(6,7-dimethoxy-4-quinolyl)oxy]phenyl}urea]	74		
COc1cc2nccc(Oc3ccc(NC(=O)Nc4ccc(OC(C)=O)cc4)cc3)c2cc1OC [Compound 270, N-(4-Acetoxyphenyl)-N'-{4-[(6,7-dimethoxy-4-quinolyl)oxy]phenyl}urea]		6	
COc1cc2nccc(Oc3ccc(NC(=O)NC(C)c4cccc5ccccc45)cc3)c2cc1OC (stereo not shown) [Compound 231, N-{4-[(6,7-dimethoxy-4-quinolyl)oxy]phenyl)-N'-[1-(1-naphthyl)ethyl]urea]		19	
CCCCNC(=O)Nc1ccc(Oc2ncnc3cc(OC)c(OC)cc23)cc1 [Compound 220, N-(4-[(6,7-Dimethoxy-4-quinazolinyl)oxy]phenyl)-N'-n-butylurea]		9	
CCCCNC(=O)Nc1ccc(Oc2ccnc3cc(OC)c(OC)cc23)cc1 [Compound 139, N-n-Butyl-N'-{4-[(6,7-dimethoxy-4-quinolyl)oxy]phenyl}urea]		5	
COc1ccccc1NC(=O)Nc1ccc(Oc2ccnc3cc(OC)c(OC)cc23)cc1 [Compound 57]		6	64
COc1cc2nccc(Oc3ccc(NC(=O)NC4CCCCC4)cc3)c2cc1OC [Compound 253, N-(Cyclohexyl)-N'-{4-[(6,7-dimethoxy-4-quinolyl)oxy]phenyl}urea]		7	
COc1cc2nccc(Oc3cccc(NC(=O)Nc4ccccc4C(F)(F)F)c3)c2cc1OC [Compound 94]		23	
COc1cc2nccc(Oc3ccc(NC(=O)Nc4ccc(Cl)cc4)cc3)c2cc1OC [Compound 165, N-(4-Chlorophenyl)-N'-{4-[(6,7-dimethoxy-4-quinolyl)oxy]phenyl}urea]	70		
COc1cc2nccc(Oc3ccc(NC(=O)Nc4cccc(C)c4)cc3)c2cc1OC [Compound 55, N-{4-[(6,7-Dimethoxy-4-quinolyl)oxy]phenyl}-N'-(3-methylphenyl)urea]		3	
C=CCNC(=O)Nc1ccc(Oc2ccnc3cc(OC)c(OC)cc23)cc1 [Compound 173, N-Allyl-N'-{4-[(6,7-dimethoxy-4-quinolyl)oxy]phenyl}urea]		16	54
COc1cc2nccc(Oc3ccc(NC(=O)Nc4ccc5c(c4)CCC5)cc3)c2cc1OC [Compound 197, N-(5-Indanyl)-N'-{4-[(6,7-dimethoxy-4-quinolyl)oxy]phenyl}urea]		10	
COc1cc2nccc(Oc3ccc(NC(=O)Nc4ccc(C(C)C)cc4)cc3)c2cc1OC [Compound 51, N-(4-Isopropylphenyl)-N'-{4-[(6,7-dimethoxy-4-quinolinyl)oxy]phenyl}urea]		9	
COc1cc2nccc(Oc3ccc(NC(=O)Nc4c(F)cccc4F)cc3)c2cc1OC [Compound 263, N-(2,6-Difluorophenyl)-N'-{4-[(6,7-dimethoxy-4-quinolyl)oxy]phenyl}urea]		4	
COc1cc2nccc(Oc3ccc(NC(=O)Nc4cccc5ccccc45)cc3)c2cc1OC [Compound 174, N-{4-[(6,7-Dimethoxy-4-quinolyl)oxy]phenyl}-N'-(1-naphthyl)urea]		2	
COc1cc2nccc(Oc3ccc(NC(=O)Nc4ccccc4C(F)(F)F)cc3)c2cc1OC [Compound 54]		3	
COc1cc2nccc(Oc3ccc(NC(=O)Nc4ccc(Cl)cc4Cl)cc3)c2cc1OC [Compound 229, N-(2,4-Dichlorophenyl)-N'-{4-[(6,7-dimethoxy-4-quinolyl)oxy]phenyl}urea]	81		
